Assay: in vitro
Conditions: human, hela cells, % viability

Compound	viability at 28.5 h, 10 µM	viability at 28.5 h, 10 µM (bulk resorufin, single well)
CCn1c2ccccc2c2cc(C(N)=O)c(N)nc21 [CBK019787]	85.2%	
Cn1nc(C2CC2)cc1C(=O)NCCCN1CCCc2ccccc21 [CBK282476]	90.7%	
Cc1nn(CCC#N)c2nc(-c3ccc(F)cc3)cc(C(=O)O)c12 [CBK296974]	94.7%	
O=C(c1cc(S(=O)(=O)N2CCOCC2)ccc1Cl)N1CCCC(CO)C1 (centres unmarked) [CBK304236]	104%	
COC(=O)c1cc(NC(=O)c2cc(-c3ccc(C)o3)nc3ccccc23)cc(C(=O)OC)c1 [CBK265400]	86.3%	
COc1ccc(-c2cncc(C3CN(Cc4cccc5ncccc45)CCO3)n2)cc1 (centres unmarked) [CBK285947]	96.7%	
CCOC(=O)c1cccnc1-c1cncnc1 [CBK149236]	118%	
O=C(O)Cn1cc(C(=O)COc2ccccc2)c2ccccc21 [CBK286708]	85.4%	
CN(C)C(=O)CC(O)c1cc2n(n1)CCN(Cc1cccs1)C2 (centres unmarked) [CBK306620]	113%	
COc1ccc([N+](=O)[O-])cc1CSc1nnc(COc2ccccc2C)n1C [CBK265820]	93%	
Cc1ccsc1CN(CCCO)Cc1cn(C)nc1C [CBK282983]	95.7%	
O=C(NCCc1ccco1)c1ncoc1-c1ccc(F)cc1 [CBK282247]	104%	
COc1ccc(C(=O)N2CCC3(CCCN(CCN4C(=O)c5ccccc5C4=O)C3)C2)cc1OC (centres unmarked) [CBK132862]	98.1%	
CC(C)n1c(COc2ccc(OC(F)(F)F)cc2)n[nH]c1=S [CBK012989]	92.9%	
COc1ccc(CNc2cnc3ccccc3c2)c(O)c1 [CBK293951]	87.5%	
O=C(COc1ccc(-c2ccccc2)cc1)N1CCN(S(=O)(=O)c2ccc([N+](=O)[O-])cc2)CC1 [CBK264297]	106%	
COc1cccc2c1cc(C(=O)NC1CCCN(C)C1)n2C (centres unmarked) [CBK283266]	90.2%	
Cc1nc2c(c(=O)[nH]1)CC[C@@H]1CN(C(=O)C3CCCCC3)C[C@H]21 [CBK284407]	102%	
CN(CCN1CCCCC1)C(=O)c1c2c(nn1C)CCCC2 [CBK281905]	102%	
CC(C)c1cc(C(=O)N(C)Cc2cccc3ncccc23)n(C)n1 [CBK282567]	86.4%	
Cc1cccnc1NC(=O)C(C)n1cc([N+](=O)[O-])cn1 (centres unmarked) [CBK268918]	104%	
COc1cc(OC)nc(NC(=O)CN2CCN(c3ccc(F)cc3)CC2)n1 [CBK267259]	96.5%	

Compound	viability at 28.5 h, 10 µM	viability at 28.5 h, 10 µM (bulk resorufin, single well)
Cn1ccnc1C1(O)CC2CCC(C1)N2C(=O)c1c(F)cccc1F (centres unmarked) [CBK284092]	88.7%	
Nc1nnc(-c2ccc(Oc3nc(N4CCOCC4)nc(N4CCOCC4)n3)cc2)s1 [CBK266305]	96.1%	
N#Cc1cccc(CSc2nnc(Nc3ccccc3)n2-c2ccccc2)c1 [CBK266040]	107%	
Cc1ccc(N(CC(=O)Nc2ccccc2C(N)=O)S(=O)(=O)c2ccccc2)cc1C [CBK265246]	94.4%	
O=C(O)CCn1c2ccc(Cl)cc2c2cc(Cl)ccc21 [CBK261415]	89.5%	
O=C(c1ccccc1F)N1C[C@H](c2ccsc2)[C@H]2CN(Cc3cccs3)CC[C@H]21 [CBK285657]	94.8%	
O=C(CSc1nnc(CN2CCOCC2)n1-c1ccc(Cl)cc1)N1CCN(c2ccccc2)CC1 [CBK269088]	96.9%	
Cc1nc2sccn2c1CN1CCC(O)(c2ccc(F)cc2)CC1 [CBK282792]	98.2%	
CN1CCN(c2ccccc2NC(=S)NC(=O)c2ccc(N3CCCCC3)c([N+](=O)[O-])c2)CC1 [CBK268520C]	121%	
O=C(CSc1nc[nH]n1)Nc1ccccc1[N+](=O)[O-] [CBK265005]	100%	
COc1ccc(CCn2nc(C(=O)O)c3ccccc32)cc1 [CBK093525]		85%
O=C(NCCN1CCOCC1)C1CCN(c2nc3c(-c4ccccc4F)csc3c(=O)[nH]2)CC1 [CBK215442]	104%	
CC12CCC(C(=O)N(CC(O)Cn3c4ccc(Br)cc4c4cc(Br)ccc43)C1=O)C2(C)C (centres unmarked) [CBK262449]	94.4%	
Cc1ccnc(Sc2nc3c(c(=O)[nH]c(=O)n3C)n2CCCc2ccccc2)n1 [CBK269353]	79.4%	
CN(C)S(=O)(=O)NNC(=O)c1c[nH]c2ccccc12 [CBK267698]	102%	
COc1cc(-c2cnc3[nH]c(=O)n(CCc4ccncc4)c3n2)cc(OC)c1OC [CBK064620]	96.9%	
O=C(COc1ccc(F)cc1F)NNC(=S)NC1CCCCC1 [CBK266859]	82.2%	
C/C(=N\NC(=O)c1ccccc1O)c1ccc(NC(=O)c2ccc(C)cc2)cc1 [CBK261251]	84.7%	
O=c1[nH]c2ncc(-c3ccsc3)nc2n1C1CCCCC1 [CBK064574]	92.6%	
Cn1cc(C2C[S+]([O-])CCN2Cc2csc3ccccc23)cn1 (centres unmarked) [CBK304085]	103%	
Cc1cc2ncn(CC(=O)NC3Cc4ccccc4C3)c2cc1C [CBK200261]	97.3%	
CC(C)c1ccc(/C=C/C(=O)NCc2ccc(NS(C)(=O)=O)cc2)cc1 [CBK161512]	97.8%	

Reference: article PMC12040169 (PLOS Biology, 2025)
